The text below walks through data of patent publication US7485651B2, “Compounds with activity on muscarinic receptors” (Acadia Pharmaceuticals, Inc., priority 1998, dated 2009).

Each structure is given as a SMILES string.

Common to all, as to format: cell-based
The target of assay [1] is T1, m2 receptor (Homo sapiens, UniProt P08172).
T1 construct: expressed in transfected cells; host or cells: NIH 3T3 (ATCC CRL 1658)
T1 sequence (P08172 1-466): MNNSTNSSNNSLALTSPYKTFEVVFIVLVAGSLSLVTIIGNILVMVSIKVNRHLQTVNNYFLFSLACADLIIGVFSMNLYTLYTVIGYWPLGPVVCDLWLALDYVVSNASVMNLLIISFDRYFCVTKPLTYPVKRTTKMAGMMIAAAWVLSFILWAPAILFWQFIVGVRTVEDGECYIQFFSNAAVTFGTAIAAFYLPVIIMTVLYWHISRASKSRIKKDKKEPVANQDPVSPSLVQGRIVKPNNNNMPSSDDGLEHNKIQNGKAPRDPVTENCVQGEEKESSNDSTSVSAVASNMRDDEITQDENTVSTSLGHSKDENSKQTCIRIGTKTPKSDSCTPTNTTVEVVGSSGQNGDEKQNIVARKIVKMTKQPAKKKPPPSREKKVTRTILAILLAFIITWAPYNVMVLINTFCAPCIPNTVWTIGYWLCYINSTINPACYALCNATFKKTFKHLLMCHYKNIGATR
Description: NIH 3T3 cells transfected with m2 muscarinic receptor and Gq-i5. How it is done:
Transfection of cells with muscarinic receptor DNAs (general procedure) NIH 3T3 cells (available from the American Type Culture Collection as ATCC CRL 1658) were grown at 37° C. in a humidified atmosphere (5% CO2) incubator in Dulbecco's modified Eagle's medium (DMEM) supplemented with 4.5 g/l glucose, 4 mM glutamine, 50 units/m1 penicillin, 50 units/m1 streptomycin (available from Advanced Biotechnologies, Inc., Gaithersburg, Md.) and 10% calf serum (available from Sigma, St. Louis, […].). The cells were treated with trypsin-EDTA, spun down and plated at 2×10^6 per 15 cm dish in 20 m1 of DMEM containing 10% calf serum.
The m1-m5 muscarinic receptor subtypes were cloned substantially as described by Bonner et al., Science 237, 1987, p. 527, and Bonner et al., Neuron 1, 1988, p. 403. For the m2 and m4 receptors, the cells were co-transfected with DNA encoding a chimera between the Gq protein and the five carboxy-terminal amino acids of the Gi protein (the Gq-i5 construct is described by Conklin et al., Nature 363, 1993, p.274).
On day one, the cells were transfected using the Superfect transfection reagent (available from Qiagen, Valencia, Calif.) in accordance with the manufacturer's instructions. […]

Assay [2] deals with T2, α-adrenergic receptor subtype 2A (Homo sapiens, UniProt P08913).
T2 sequence (P08913 1-465): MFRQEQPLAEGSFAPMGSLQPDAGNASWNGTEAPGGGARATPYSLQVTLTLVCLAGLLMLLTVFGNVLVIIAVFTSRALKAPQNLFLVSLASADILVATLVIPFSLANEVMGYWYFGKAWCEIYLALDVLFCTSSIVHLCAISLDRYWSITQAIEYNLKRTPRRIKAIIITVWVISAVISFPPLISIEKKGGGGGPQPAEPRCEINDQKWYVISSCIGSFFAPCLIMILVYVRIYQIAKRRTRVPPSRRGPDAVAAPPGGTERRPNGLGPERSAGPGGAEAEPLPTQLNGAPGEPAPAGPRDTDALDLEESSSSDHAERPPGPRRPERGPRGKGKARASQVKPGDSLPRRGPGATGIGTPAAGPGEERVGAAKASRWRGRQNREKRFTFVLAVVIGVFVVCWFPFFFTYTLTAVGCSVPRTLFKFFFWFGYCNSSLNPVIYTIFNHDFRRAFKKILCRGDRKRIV
As to the kind of experiment: Test against other receptors: α-adrenergic 2A.

Assay [3] has as its target histamine H1 (Homo sapiens, UniProt P35367). Description: Test against other receptors: histamine H1.

histamine H1, sequence (P35367 whole entry): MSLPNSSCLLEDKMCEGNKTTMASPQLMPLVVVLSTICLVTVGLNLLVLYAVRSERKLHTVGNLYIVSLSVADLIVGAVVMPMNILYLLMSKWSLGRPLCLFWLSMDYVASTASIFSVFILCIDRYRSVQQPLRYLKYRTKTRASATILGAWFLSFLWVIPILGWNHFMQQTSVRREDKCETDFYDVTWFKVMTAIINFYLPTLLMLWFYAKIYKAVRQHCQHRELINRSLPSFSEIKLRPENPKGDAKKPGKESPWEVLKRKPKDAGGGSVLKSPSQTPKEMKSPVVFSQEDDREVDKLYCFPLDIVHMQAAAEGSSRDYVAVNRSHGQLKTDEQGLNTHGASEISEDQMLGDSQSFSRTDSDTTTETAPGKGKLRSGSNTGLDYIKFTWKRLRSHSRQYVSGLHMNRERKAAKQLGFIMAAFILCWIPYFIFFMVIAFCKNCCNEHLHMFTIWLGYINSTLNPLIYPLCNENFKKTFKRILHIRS

Take `CCCCC1CCN(CCCC(=O)c2ccccc2C)CC1` [Compound A, 4-n-Butyl-1-[4-(2-methylphenyl)-4-oxo-1-butyl]piperidine]: the “antagonism of carbachol-induced responses” value in assay [1] was “not an antagonist”. Also, in assay [2], the agonist activity entry is “no significant activity” and the “inhibition of receptor responses (antagonist experiments)” value was “did not inhibit”. In addition, the agonist activity entry in assay [3] is on record as “no significant activity”.
